# Reference: patent US6472348B1, “Pyridone derivatives and herbicides” (Kumiai Chemical Industry Co., Ltd., priority 1996, dated 2002)
row,SMILES,melting point [°C]
1,"Cc1cc(-c2cc(O)c(Cl)cc2F)c(=O)n(C)c1C(F)(F)F [Compound No. 1-79, 3-(4-chloro-2-fluoro-5-hydroxyphenyl)-1,5-dimethyl-6-trifluoromethyl-2(1H)-pyridone]",207 to 208
2,"Cn1c(C(F)(F)F)ccc(-c2cc([N+](=O)[O-])c(F)cc2F)c1=O [Compound No. 1-100, 3-(2,4-difluoro-5-nitrophenyl)-1-methyl-6-trifluoromethyl-2(1H)-pyridone]",115 to 118
3,"CSCc1cc2c(-c3ccc(C(F)(F)F)n(C)c3=O)c(F)cc(Cl)c2o1 [Compound No. 4-44, 3-(7-chloro-5-fluoro-2-methylthiomethylbenzofuran-4-yl)-1-methyl-6-trifluoromethyl-2-(1H)-pyridone]",169 to 171
4,"CCC(c1cc2c(-c3ccc(C(F)(F)F)n(C)c3=O)c(F)cc(Cl)c2o1)[S+](C)[O-] (stereo not shown) [Compound No. 4-57, 3-[7-chloro-5-fluoro-2-(1-methylsulfinylpropyl)benzofuran-4-yl]-1-methyl-6-trifluoromethyl-2-(1H)-pyridone]",125 to 127

# Other lines, results leading:
row,melting point [°C],SMILES
1,155 to 157,"Cn1c(C(F)(F)F)ccc(-c2cc(N)c(Cl)cc2F)c1=O [Compound No. 1-59, 3-(5-amino-4-chloro-2-fluorophenyl)-1-methyl-6-trifluoromethyl-2(1H)-pyridone]"
2,91 to 92,"CC(=O)Sc1cc(-c2ccc(C(F)(F)F)n(C)c2=O)c(F)cc1Cl [Compound No. 1-85, 3-(5-acetylthio-4-chloro-2-fluorophenyl)-1-methyl-6-trifluoromethyl-2(1H)-pyridone]"
3,263 to 265,"Cn1c(C(F)(F)F)ccc(-c2cc3[nH]c(=O)oc3cc2Cl)c1=O [Compound No. 3-20, 3-(6-chlorobenzoxazolin-2-on-5-yl)-1-methyl-6-trifluoromethyl-2(1H)-pyridone]"
